EP4467141A1, “PYRAZOLO-QUINOLINES AS SELECTIVE INHIBITORS OF GENOTOXIC STRESS-INDUCED IKK/NF- KB PATHWAYS FOR CANCER THERAPY” (Max-Delbrück-Centrum für Molekulare Medizin in der …, priority 2023, dated 2024)

Tests used:
Experiment in all cases: Kinase panel study
Assay type in all cases: biochemical
Conditions in all cases: read-out: Percentage of inhibition; for inhibition at 1 µM: 1000nM; for inhibition at 10 µM: 10000nM
STK22B (TSSK2) = biological target: T1, STK22B (TSSK2) (Homo sapiens, UniProt Q96PF2)
T1 construct: purchased Thermo Fisher Scientific
T1 sequence (Q96PF2 1-358): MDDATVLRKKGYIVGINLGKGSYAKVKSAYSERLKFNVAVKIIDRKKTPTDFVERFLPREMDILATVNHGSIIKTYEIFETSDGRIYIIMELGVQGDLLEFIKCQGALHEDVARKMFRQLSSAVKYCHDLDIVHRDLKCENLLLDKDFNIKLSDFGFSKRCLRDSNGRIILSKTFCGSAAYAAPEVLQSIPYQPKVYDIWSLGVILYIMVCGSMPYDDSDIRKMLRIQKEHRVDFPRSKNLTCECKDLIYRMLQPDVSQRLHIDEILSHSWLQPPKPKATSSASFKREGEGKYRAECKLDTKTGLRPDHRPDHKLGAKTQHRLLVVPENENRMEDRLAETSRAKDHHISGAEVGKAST
Procedure, shortened: (§1)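 Percent inhibition of each kinase by the test compound, given at either 1 µM or 10 µM, came from a contracted panel run by ZLyte or Adapta protocol.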

SRC N1 = biological target: T2, SRC N1 (Homo sapiens, UniProt P12931)
T2 construct: purchased Thermo Fisher Scientific
Procedure, shortened: as §1

MAP3K19 (YSK4) = biological target: T3, MAP3K19 (YSK4) (Homo sapiens, UniProt Q56UN5)
T3 construct: purchased Thermo Fisher Scientific
T3 sequence (Q56UN5 1-1328): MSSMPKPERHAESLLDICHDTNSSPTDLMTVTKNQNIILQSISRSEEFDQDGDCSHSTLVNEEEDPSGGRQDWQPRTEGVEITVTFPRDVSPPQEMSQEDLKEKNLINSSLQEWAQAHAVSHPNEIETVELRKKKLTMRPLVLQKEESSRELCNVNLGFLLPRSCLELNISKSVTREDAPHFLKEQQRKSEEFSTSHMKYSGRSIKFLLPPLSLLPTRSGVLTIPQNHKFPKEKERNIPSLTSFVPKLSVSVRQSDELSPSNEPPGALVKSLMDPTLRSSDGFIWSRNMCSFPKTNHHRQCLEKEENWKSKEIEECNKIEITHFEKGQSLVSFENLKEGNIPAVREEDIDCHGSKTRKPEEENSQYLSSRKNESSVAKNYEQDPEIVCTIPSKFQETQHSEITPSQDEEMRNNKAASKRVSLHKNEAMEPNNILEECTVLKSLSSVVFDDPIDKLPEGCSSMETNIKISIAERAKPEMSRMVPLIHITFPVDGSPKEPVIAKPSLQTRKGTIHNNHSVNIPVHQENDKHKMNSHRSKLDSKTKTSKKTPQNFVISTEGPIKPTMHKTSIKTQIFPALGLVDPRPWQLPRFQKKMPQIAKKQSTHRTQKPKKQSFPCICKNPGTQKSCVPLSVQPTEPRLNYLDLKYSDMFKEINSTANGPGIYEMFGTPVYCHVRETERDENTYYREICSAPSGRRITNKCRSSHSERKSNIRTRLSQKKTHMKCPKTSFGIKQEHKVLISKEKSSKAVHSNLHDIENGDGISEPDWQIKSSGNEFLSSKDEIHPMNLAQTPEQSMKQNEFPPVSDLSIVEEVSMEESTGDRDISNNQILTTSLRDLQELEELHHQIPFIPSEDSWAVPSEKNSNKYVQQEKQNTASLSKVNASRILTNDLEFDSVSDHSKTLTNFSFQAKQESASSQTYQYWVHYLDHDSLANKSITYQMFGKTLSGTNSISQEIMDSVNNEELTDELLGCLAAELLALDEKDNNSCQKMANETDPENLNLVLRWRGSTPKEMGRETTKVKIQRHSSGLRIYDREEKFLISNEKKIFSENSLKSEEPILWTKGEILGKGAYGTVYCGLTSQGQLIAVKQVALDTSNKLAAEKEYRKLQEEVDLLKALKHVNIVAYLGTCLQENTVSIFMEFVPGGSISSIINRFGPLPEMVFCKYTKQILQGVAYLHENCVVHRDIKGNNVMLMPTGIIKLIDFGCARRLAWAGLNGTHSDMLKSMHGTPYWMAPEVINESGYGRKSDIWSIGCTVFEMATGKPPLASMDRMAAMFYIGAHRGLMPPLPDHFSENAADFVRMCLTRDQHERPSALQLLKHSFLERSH
Procedure, shortened: as §1

PDGFRA (PDGFR alpha) = biological target: T4, PDGFRA (PDGFR alpha) (Homo sapiens, UniProt P16234)
T4 construct: purchased Thermo Fisher Scientific
Procedure, shortened: as §1

T2 sequence (P12931 1-542 isoform P12931-2): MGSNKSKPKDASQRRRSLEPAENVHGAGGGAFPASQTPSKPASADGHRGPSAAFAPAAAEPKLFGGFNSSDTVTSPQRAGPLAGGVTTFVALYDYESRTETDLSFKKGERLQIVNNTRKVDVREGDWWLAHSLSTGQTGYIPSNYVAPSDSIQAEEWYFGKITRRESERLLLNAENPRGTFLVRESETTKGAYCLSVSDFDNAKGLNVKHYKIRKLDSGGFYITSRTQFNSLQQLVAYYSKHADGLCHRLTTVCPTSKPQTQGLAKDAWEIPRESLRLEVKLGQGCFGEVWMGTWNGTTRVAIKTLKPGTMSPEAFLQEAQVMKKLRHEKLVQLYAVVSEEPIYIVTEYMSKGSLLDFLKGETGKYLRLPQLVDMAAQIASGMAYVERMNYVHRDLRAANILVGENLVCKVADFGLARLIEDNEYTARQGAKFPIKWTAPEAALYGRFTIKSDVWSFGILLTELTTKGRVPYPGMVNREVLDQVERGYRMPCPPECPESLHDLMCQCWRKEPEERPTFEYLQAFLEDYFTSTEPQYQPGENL
T4 sequence (P16234 24-1089): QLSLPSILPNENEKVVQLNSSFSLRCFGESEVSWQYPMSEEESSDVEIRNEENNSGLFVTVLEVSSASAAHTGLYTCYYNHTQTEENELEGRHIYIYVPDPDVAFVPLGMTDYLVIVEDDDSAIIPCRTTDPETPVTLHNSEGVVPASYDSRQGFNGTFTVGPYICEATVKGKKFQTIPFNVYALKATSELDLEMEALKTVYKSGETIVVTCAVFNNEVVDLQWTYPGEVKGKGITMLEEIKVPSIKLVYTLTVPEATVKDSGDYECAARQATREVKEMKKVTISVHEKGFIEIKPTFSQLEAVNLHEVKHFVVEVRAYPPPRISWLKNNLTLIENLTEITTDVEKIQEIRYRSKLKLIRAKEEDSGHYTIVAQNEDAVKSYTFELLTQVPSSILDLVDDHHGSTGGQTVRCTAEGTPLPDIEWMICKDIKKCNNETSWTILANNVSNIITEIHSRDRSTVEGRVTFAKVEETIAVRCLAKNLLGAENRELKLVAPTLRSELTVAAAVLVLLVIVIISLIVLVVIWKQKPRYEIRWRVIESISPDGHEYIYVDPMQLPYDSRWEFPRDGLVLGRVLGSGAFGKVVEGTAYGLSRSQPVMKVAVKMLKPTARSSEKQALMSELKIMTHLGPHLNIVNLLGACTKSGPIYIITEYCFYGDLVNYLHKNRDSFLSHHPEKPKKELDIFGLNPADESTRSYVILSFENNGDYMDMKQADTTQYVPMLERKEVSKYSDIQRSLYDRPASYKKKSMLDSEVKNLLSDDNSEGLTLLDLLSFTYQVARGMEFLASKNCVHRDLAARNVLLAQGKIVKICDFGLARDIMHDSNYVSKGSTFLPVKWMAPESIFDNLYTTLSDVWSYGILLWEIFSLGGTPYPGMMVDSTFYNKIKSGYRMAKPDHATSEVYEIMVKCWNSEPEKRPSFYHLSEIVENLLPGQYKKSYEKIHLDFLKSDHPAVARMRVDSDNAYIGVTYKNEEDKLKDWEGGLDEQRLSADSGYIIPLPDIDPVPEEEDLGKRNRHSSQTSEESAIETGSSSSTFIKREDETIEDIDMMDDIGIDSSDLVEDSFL

Compound | inhibition at 1 µM (STK22B (TSSK2)) [%] | inhibition at 10 µM (STK22B (TSSK2)) [%] | inhibition at 1 µM (SRC N1) [%] | inhibition at 10 µM (SRC N1) [%] | inhibition at 1 µM (MAP3K19 (YSK4)) [%] | inhibition at 10 µM (MAP3K19 (YSK4)) [%] | inhibition at 1 µM (PDGFRA (PDGFR alpha)) [%] | inhibition at 10 µM (PDGFRA (PDGFR alpha)) [%]
COc1ccc2c(c1OC)c(=O)n1c3ccc(O)cc3c3ccnc2c31 [MW01, 5-Hydroxy-10,11-dimethoxy-9H-benzo[c]indolo[3,2,1-ij][1,5]naphthyridin-9-one] | 11 | 20 | 15 | 25 | 4 | 17 | 20 | 47
COc1ccc2cc3c(N)nn(C(=O)c4cccc(N(C)C)c4)c3nc2c1 [MW05, (3-Amino-7-methoxypyrazolo[3,4-b]quinolin-1-yl)-[3-(dimethylamino)phenyl]methanone] | 11 | 2 | 16 | 14 | -3 | -5 | 7 | 6
